Data: patent publication US20070128217A1 (priority 2003, published 2007)

Legend:
[1] = system: antibodies in sera from SARS patients (sera 1a, 1b, 2, 6, 37, 62, London, SARS-yellow, SARS-green); assay type: binding, human; parameters: Binding of serum 6 to linear peptides of protein X1 of SARS-CoV Urbani / Binding of serum 37 to linear peptides of protein X1 of SARS-CoV Urbani / Binding of serum 6 to looped/cyclic peptide (PEPSCAN-ELISA) / Binding of serum 37 to looped/cyclic peptide (PEPSCAN-ELISA) / Binding of serum 37 to looped/cyclic peptides of protein X1 of SARS-CoV Urbani / Binding of serum 6 to linear peptides of protein X2 / Binding of serum 37 to linear peptides of protein X2 / Binding of serum 37 to looped/cyclic peptides of protein X2 of SARS-CoV Urbani / Binding of serum 6 to linear peptides of protein M of SARS-CoV Urbani / Binding of serum 37 to linear peptides of protein M of SARS-CoV Urbani / Binding of serum 6 to looped/cyclic peptides of protein M of SARS-CoV Urbani / Binding of serum 37 to looped/cyclic peptides of protein M of SARS-CoV Urbani / Binding of serum 6 to linear peptides of protein X3 of SARS-CoV Urbani / Binding of serum 37 to linear peptides of protein X3 of SARS-CoV Urbani / Binding of serum 37 to looped/cyclic peptides of protein X3 of SARS-CoV Urbani / Binding of serum 6 to linear peptides of protein X4 of SARS-CoV Urbani / Binding of serum 37 to linear peptides of protein X4 of SARS-CoV Urbani / Binding of serum 37 to looped/cyclic peptides of protein X4 of SARS-CoV Urbani / Binding of serum 6 to linear peptides of protein X5 of SARS-CoV Urbani / Binding of serum 37 to linear peptides of protein X5 of SARS-CoV Urbani / Binding of serum 37 to looped/cyclic peptides of protein X5 of SARS-CoV Urbani / Binding of serum 6 to linear peptides of protein N of SARS-CoV Urbani / Binding of serum 37 to linear peptides of protein N of SARS-CoV Urbani / Binding of serum 6 to linear peptide (PEPSCAN-ELISA) / Binding of serum 1a to looped/cyclic peptides of protein N of SARS-CoV Urbani / Binding of serum 1b to looped/cyclic peptides of protein N of SARS-CoV Urbani / Binding of serum 2 to looped/cyclic peptides of protein N of SARS-CoV Urbani / Binding of serum 6 to looped/cyclic peptides of protein N of SARS-CoV Urbani / Binding of serum 37 to looped/cyclic peptides of protein N of SARS-CoV Urbani / Binding of serum 62 to looped/cyclic peptides of protein N of SARS-CoV Urbani / Binding of serum London to looped/cyclic peptides of protein N of SARS-CoV Urbani / Binding of serum SARS-green to looped/cyclic peptides of protein N of SARS-CoV Urbani: unit not given here
[2] = system: rabbit serum obtained by immunizing a rabbit with the SARS-CoV strain Frankfurt 1; assay type: binding; parameters: Binding of a rabbit serum to linear peptides / Binding of a rabbit serum to looped peptides / Rabbit serum linear peptides / Rabbit serum looped peptides / Binding of a rabbit serum to linear peptides of protein N of SARS-CoV Urbani (Rabbit serum linear peptides) / Binding of a rabbit serum to looped/cyclic peptides of protein N of SARS-CoV Urbani (Rabbit serum looped peptides): unit not given here
[3] = system: control sera (pooled serum of ten healthy LUMC hospital workers; commercial negative donor pooled serum from the Dutch bloodbank); assay type: binding, human; parameters: Binding of Control serum LUMC to linear peptides / Binding of Control serum Blood-bank to linear peptides / Binding of Control serum LUMC to looped peptides / Binding of Control Serum Blood-Bank to Looped peptides / Binding of Control serum LUMC to linear peptides of the protein M of SARS-CoV Urbani / Binding of Control serum Blood-bank to linear peptides of the protein M of SARS-CoV Urbani / Binding of Control serum LUMC to looped peptides of the protein M of SARS-CoV Urbani / Binding of Control Serum Blood-Bank to Looped peptides of the protein M of SARS-CoV Urbani: unit not given here

STAWLCALGKVLPFH
Binding of serum 1a to linear peptides of protein X5 of SARS-CoV Urbani [1]: 0.8 | Binding of serum 1a to looped/cyclic peptides of protein X5 of SARS-CoV Urbani [1]: 0.6 | Binding of serum 1b to linear peptides of protein X5 of SARS-CoV Urbani [1]: 0.6 | Binding of serum 1b to looped/cyclic peptides of protein X5 of SARS-CoV Urbani [1]: 0.4 | Binding of serum 2 to linear peptides of protein X5 of SARS-CoV Urbani [1]: 0.6 | Binding of serum 2 to looped/cyclic peptides of protein X5 of SARS-CoV Urbani [1]: 0.6 | Binding of serum 6 to linear peptides of protein X5 of SARS-CoV Urbani [1]: 0.7 | Binding of serum 6 to looped/cyclic peptides of protein X5 of SARS-CoV Urbani [1]: 0.5 | Binding of serum 37 to linear peptides of protein X5 of SARS-CoV Urbani [1]: 0.7 | Binding of serum 37 to looped/cyclic peptides of protein X5 of SARS-CoV Urbani [1]: 0.4 | Binding of serum 62 to linear peptides of protein X5 of SARS-CoV Urbani [1]: 0.8 | Binding of serum 62 to looped/cyclic peptides of protein X5 of SARS-CoV Urbani [1]: 0.7 | Binding of serum London to linear peptides of protein X5 of SARS-CoV Urbani [1]: 0.7 | Binding of serum London to looped/cyclic peptides of protein X5 of SARS-CoV Urbani [1]: 0.2 | Binding of serum SARS-green to linear peptides of protein X5 of SARS-CoV Urbani [1]: 0.6 | Binding of serum SARS-green to looped/cyclic peptides of protein X5 of SARS-CoV Urbani [1]: 0.3 | Binding of serum SARS-yellow to linear peptides of protein X5 of SARS-CoV Urbani [1]: 0.3 | Binding of serum SARS-yellow to looped/cyclic peptides of protein X5 of SARS-CoV Urbani [1]: 1.0 | Rabbit serum linear peptides [2]: 0.5 | Rabbit serum looped peptides [2]: 0.7 | Binding of Control Serum Blood-Bank to Looped peptides [3]: 0.5 | Binding of Control serum Blood-bank to linear peptides [3]: 0.9 | Binding of Control serum LUMC to linear peptides [3]: 0.6 | Binding of Control serum LUMC to looped peptides [3]: 0.6

GIENATFFIFNKLVK
Binding of serum 1a to linear peptides of protein X1 of SARS-CoV Urbani [1]: 0.6 | Binding of serum 1a to looped/cyclic peptides of protein X1 of SARS-CoV Urbani [1]: 0.6 | Binding of serum 1b to linear peptides of protein X1 of SARS-CoV Urbani [1]: 0.5 | Binding of serum 1b to looped/cyclic peptides of protein X1 of SARS-CoV Urbani [1]: 0.4 | Binding of serum 2 to linear peptides of protein X1 of SARS-CoV Urbani [1]: 0.5 | Binding of serum 2 to looped/cyclic peptides of protein X1 of SARS-CoV Urbani [1]: 0.5 | Binding of serum 6 to linear peptides of protein X1 of SARS-CoV Urbani [1]: 0.5 | Binding of serum 6 to looped/cyclic peptides of protein X1 of SARS-CoV Urbani [1]: 0.5 | Binding of serum 37 to linear peptides of protein X1 of SARS-CoV Urbani [1]: 0.6 | Binding of serum 37 to looped/cyclic peptides of protein X1 of SARS-CoV Urbani [1]: 0.6 | Binding of serum 62 to linear peptides of protein X1 of SARS-CoV Urbani [1]: 0.6 | Binding of serum 62 to looped/cyclic peptides of protein X1 of SARS-CoV Urbani [1]: 0.6 | Binding of serum London to linear peptides of protein X1 of SARS-CoV Urbani [1]: 0.3 | Binding of serum London to looped/cyclic peptides of protein X1 of SARS-CoV Urbani [1]: 0.2 | Binding of serum SARS-green to linear peptides of protein X1 of SARS-CoV Urbani [1]: 0.2 | Binding of serum SARS-green to looped/cyclic peptides of protein X1 of SARS-CoV Urbani [1]: 0.2 | Binding of serum SARS-yellow to linear peptides of protein X1 of SARS-CoV Urbani [1]: 0.5 | Binding of serum SARS-yellow to looped/cyclic peptides of protein X1 of SARS-CoV Urbani [1]: 0.5 | Binding of a rabbit serum to linear peptides [2]: 0.1 | Binding of a rabbit serum to looped peptides [2]: 0.6 | Binding of Control Serum Blood-Bank to Looped peptides [3]: 0.5 | Binding of Control serum Blood-bank to linear peptides [3]: 0.6 | Binding of Control serum LUMC to linear peptides [3]: 0.5 | Binding of Control serum LUMC to looped peptides [3]: 0.5
